According to PubChem BioAssay (NCI):
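GI50: concentration for 50% inhibition of growth. At the TGI there is no net growth.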

Assays:
Experiment in all cases: inhibition of tumour cell growth, NCI panel, 384-well format
[1] = test system: A498 renal
[2] = test system: A549 NSCLC
[3] = test system: ACHN renal
[4] = test system: CAKI-1 renal
[5] = test system: CCRF-CEM leukemia
[6] = test system: COLO 205 colon
[7] = test system: EKVX NSCLC
[8] = test system: HCC-2998 colon
[9] = test system: HCT-116 colon
[10] = test system: HCT-15 colon
[11] = test system: HL-60(TB) leukemia
[12] = test system: HOP-92 NSCLC
[13] = test system: HT29 colon
[14] = test system: IGROV1 ovarian
[15] = test system: K-562 leukemia
[16] = test system: KM12 colon
[17] = test system: LOX IMVI melanoma
[18] = test system: M14 melanoma
[19] = test system: MALME-3M melanoma
[20] = test system: MOLT-4 leukemia
[21] = test system: NCI-H226 lung
[22] = test system: NCI-H23 lung
[23] = test system: NCI-H322M lung
[24] = test system: NCI-H460 NSCLC
[25] = test system: OVCAR-3 ovarian
[26] = test system: OVCAR-4 ovarian
[27] = test system: OVCAR-5 ovarian
[28] = test system: OVCAR-8 ovarian
[29] = test system: PC-3 prostate
[30] = test system: RPMI-8226 leukemia
[31] = test system: RXF 393 renal
[32] = test system: SF-268 CNS
[33] = test system: SF-295 CNS
[34] = test system: SF-539 CNS
[35] = test system: SK-MEL-2 melanoma
[36] = test system: SK-MEL-28 melanoma
[37] = test system: SK-MEL-5 melanoma
[38] = test system: SN12C renal
[39] = test system: SNB-19 CNS
[40] = test system: SNB-75 CNS
[41] = test system: SW-620 colon
[42] = test system: T-47D breast
[43] = test system: TK-10 renal
[44] = test system: U251 glioblastoma
[45] = test system: UACC-257 melanoma
[46] = test system: UACC-62 melanoma
[47] = test system: UO-31 renal

For `CC(=O)OC1C(C)OC(Oc2c(-c3ccc(O)cc3)oc3cc(O)cc(O)c3c2=O)C(O)C1OC(C)=O` (centres undefined), the GI50 [1] was 92.1 µM, the TGI [1] was > 100 µM and the GI50 [2] was > 100 µM. For the same compound, the TGI [2] was > 100 µM, the GI50 [3] was 74.5 µM and the TGI [3] was > 100 µM. The GI50 [4] was > 100 µM, the TGI [4] was > 100 µM and the GI50 [5] was 20.2 µM. For the same compound, the TGI [5] was 37.6 µM, the GI50 [6] was 93.1 µM and the TGI [6] was > 100 µM. For the same compound, the GI50 [7] was 83.8 µM, the TGI [7] was > 100 µM and the GI50 [8] was 38.7 µM. For the same compound, the TGI [8] was > 100 µM, the GI50 [9] was 39.2 µM and the TGI [9] was > 100 µM. The GI50 [10] was 87.7 µM, the TGI [10] was > 100 µM and the GI50 [11] was 17.5 µM. It also gave a TGI [11] of 31.5 µM, a GI50 [12] of 28.6 µM and a TGI [12] of 76.8 µM. For the same compound, the GI50 [13] was 63.6 µM, the TGI [13] was > 100 µM and the GI50 [14] was 44.7 µM. For the same compound, the TGI [14] was > 100 µM, the GI50 [15] was 34.4 µM and the TGI [15] was > 100 µM. For the same compound, the GI50 [16] was 41.9 µM, the TGI [16] was > 100 µM and the GI50 [17] was 31.6 µM. For the same compound, the TGI [17] was > 100 µM, the GI50 [18] was 39.8 µM and the TGI [18] was > 100 µM. The GI50 [19] was 20.2 µM, the TGI [19] was 49.8 µM and the GI50 [20] was 17.4 µM. For the same compound, the TGI [20] was 31.9 µM, the GI50 [21] was 34.2 µM and the TGI [21] was > 100 µM. For the same compound, the GI50 [22] was 28.8 µM, the TGI [22] was 82.3 µM and the GI50 [23] was 46.9 µM. For the same compound, the TGI [23] was > 100 µM, the GI50 [24] was 39.5 µM and the TGI [24] was > 100 µM. For the same compound, the GI50 [25] was 23.3 µM, the TGI [25] was 57.7 µM and the GI50 [26] was 36.4 µM. The TGI [26] was > 100 µM, the GI50 [27] was > 100 µM and the TGI [27] was > 100 µM. For the same compound, the GI50 [28] was 31.4 µM, the TGI [28] was > 100 µM and the GI50 [29] was 38.9 µM. The TGI [29] was > 100 µM, the GI50 [30] was 15.1 µM and the TGI [30] was 30.8 µM. It also gave a GI50 [31] of 23 µM, a TGI [31] of 65.9 µM and a GI50 [32] of 28.8 µM. The TGI [32] was 92.7 µM, the GI50 [33] was 33.9 µM and the TGI [33] was > 100 µM. For the same compound, the GI50 [34] was > 100 µM, the TGI [34] was > 100 µM and the GI50 [35] was 30 µM. For the same compound, the TGI [35] was 73.8 µM, the GI50 [36] was 32.2 µM and the TGI [36] was > 100 µM. The GI50 [37] was 32.5 µM, the TGI [37] was > 100 µM and the GI50 [38] was 32.2 µM. The TGI [38] was > 100 µM, the GI50 [39] was 50.4 µM and the TGI [39] was > 100 µM. It also gave a GI50 [40] of 32 µM, a TGI [40] of 97 µM and a GI50 [41] of 59.1 µM. For the same compound, the TGI [41] was > 100 µM, the GI50 [42] was 19.5 µM and the TGI [42] was 47.7 µM. For the same compound, the GI50 [43] was > 100 µM, the TGI [43] was > 100 µM and the GI50 [44] was 46.4 µM. The TGI [44] was > 100 µM, the GI50 [45] was 43.5 µM and the TGI [45] was > 100 µM. The GI50 [46] was 23.1 µM, the TGI [46] was 63.6 µM and the GI50 [47] was > 100 µM. For the same compound, the TGI [47] was > 100 µM.
